Results published in BindingDB's records for doi:10.1021/jm2007062 (Tranzyme Pharma, 2011).

target: Growth hormone secretagogue receptor type 1 (Homo sapiens) (UniProt Q92847); assay: Displacement of [125I-His9]-ghrelin from human GRLN receptor by radioligand binding assay
Sequence (Q92847 whole entry, looked up): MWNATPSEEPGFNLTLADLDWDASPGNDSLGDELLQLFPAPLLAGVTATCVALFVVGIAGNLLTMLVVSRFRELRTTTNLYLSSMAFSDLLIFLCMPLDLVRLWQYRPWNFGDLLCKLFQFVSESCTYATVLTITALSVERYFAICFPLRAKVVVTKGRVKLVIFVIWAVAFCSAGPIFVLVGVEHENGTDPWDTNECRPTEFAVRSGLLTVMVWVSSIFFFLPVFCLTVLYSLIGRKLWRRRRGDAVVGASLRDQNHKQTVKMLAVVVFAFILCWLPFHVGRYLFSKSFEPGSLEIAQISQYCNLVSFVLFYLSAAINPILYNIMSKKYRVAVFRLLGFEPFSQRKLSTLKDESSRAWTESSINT

| SMILES | Ki |
| --- | --- |
| CCC[C@@H]1NCCOc2ccccc2CCCNC(=O)[C@@H](CCC(=O)O)NC(=O)CN(C)C1=O | > 10 µM |
| CCC[C@@H]1NCCOc2ccccc2CCCNC(=O)[C@@H](CCCN)NC(=O)CN(C)C1=O | > 10 µM |
| CN1CC(=O)N[C@H](Cc2ccccc2)C(=O)NCCCc2ccccc2OCCN[C@@H](CCC(=O)O)C1=O | > 10 µM |
| CCC[C@@H]1NCCOc2ccccc2CCCNC(=O)[C@@H](CO)NC(=O)CN(C)C1=O | > 10 µM |

The next lines start with the values.

| Ki | SMILES |
| --- | --- |
| > 10 µM | CN1CC(=O)N[C@H](Cc2ccccc2)C(=O)NCCCc2ccccc2OCCN[C@@H](CO)C1=O |
| > 10 µM | CC[C@H](C)[C@@H]1NCCCCCCCNC(=O)[C@@H](Cc2ccccc2)NC(=O)[C@@H](C)N(C)C1=O |
